Results published in patent US8492520B2, “Binding epitopes for G250 antibody” (Wilex AG, priority 2007, dated 2013).

Test system: G250 antibody
Assay: conformational epitope mapping of carbonic anhydrase IX peptide sections on scaffolds, binding to G250 antibody
Details: core sequences shared by the best-binding peptides
Experimental: Short peptide sections of CA-IX which bind to the G250 antibody were determined by means of conformational epitope mapping of carbonic anhydrase using the scaffolds shown in FIG. 2. The following 15 sequences were identified as peptide sections having the highest binding capacity: […]

With LSTAFARV [SEQ ID NO:1] the “recognition by G250 antibody (rank of epitope sequence)” value was “dominantly recognized”.
